The test addresses Mitogen-activated protein kinase kinase kinase kinase 1 (Homo sapiens, UniProt Q92918). The test can be described thus: Enzymatic Activity Assay: The enzymatic activity of Wild Type HPK1 (MAP4K1) Kinase was measured in the presence or absence of an inhibitor compound of the present disclosure by preparation of a reaction mixture containing a fluorescein tagged peptide (2 micromolar final concentration), ATP (Adenosine Triphosphate, 500 micromolar final concentration) and Wild Type kinase (6 nM final concentration) in a buffer system comprising 50 mM HEPES (Buffer), 3 mM MgCl2, 5% w/v Trehalose, 0.01% Brij 35 (Detergent), 0.1% Pluronic F127 (Surfactant), 0.1 mM EDTA (Ethylenediaminetetraacetic acid), 0.1 mM EGTA (ethylene glycol-bis(β-aminoethyl ether)-N,N,N′,N′-tetraacetic acid) and 1 mM DTT (Dithiothreitol) and at a pH of 7.4. The reactions were quenched by the addition of EDTA to a final concentration of 25 mM. A Caliper EZ reader was used to measure the extent of substrate to product conversion.The peptide substrate used in the HPK1 assay was designed based on the amino acid sequence surrounding serine residue 376 of SLP76-Lymphocyte cytosolic protein 2 (a known intracellular substrate of HPK1). […]. It counts as cell-based.

Sequence of Mitogen-activated protein kinase kinase kinase kinase 1 (Q92918 whole entry): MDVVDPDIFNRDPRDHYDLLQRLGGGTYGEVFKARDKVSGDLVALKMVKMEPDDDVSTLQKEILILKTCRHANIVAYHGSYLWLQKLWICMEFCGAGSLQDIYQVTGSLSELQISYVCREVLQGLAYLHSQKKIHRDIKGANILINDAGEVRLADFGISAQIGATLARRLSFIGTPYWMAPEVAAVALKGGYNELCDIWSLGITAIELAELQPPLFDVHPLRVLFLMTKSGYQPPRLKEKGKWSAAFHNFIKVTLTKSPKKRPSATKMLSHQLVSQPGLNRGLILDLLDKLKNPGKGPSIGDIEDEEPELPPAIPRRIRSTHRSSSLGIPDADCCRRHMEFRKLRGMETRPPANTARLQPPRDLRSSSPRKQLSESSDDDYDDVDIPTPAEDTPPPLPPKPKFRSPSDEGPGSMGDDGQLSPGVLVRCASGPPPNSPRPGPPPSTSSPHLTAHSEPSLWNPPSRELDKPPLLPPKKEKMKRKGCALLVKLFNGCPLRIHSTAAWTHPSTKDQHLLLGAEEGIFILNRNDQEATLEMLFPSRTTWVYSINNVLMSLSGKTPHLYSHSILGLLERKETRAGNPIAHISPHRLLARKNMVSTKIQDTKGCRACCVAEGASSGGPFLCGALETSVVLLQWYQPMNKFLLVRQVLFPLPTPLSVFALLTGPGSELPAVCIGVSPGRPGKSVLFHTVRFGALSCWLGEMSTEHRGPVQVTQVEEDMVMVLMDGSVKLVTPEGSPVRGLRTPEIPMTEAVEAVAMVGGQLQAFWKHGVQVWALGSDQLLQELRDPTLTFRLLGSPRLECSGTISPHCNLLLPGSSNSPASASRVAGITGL

As to `CN1CCc2cc(Nc3ncc(Cl)c(Nc4ccccc4P(C)(C)=O)n3)c(Cl)cc2C1`, the IC50 was less than 5 nM.

These data come from ChEMBL document CHEMBL5728856, “Anilinopyrimidines as haematopoietic progenitor kinase 1 (HPK1) inhibitors” (2021).
